Earlier results in article PMC11599114 (Viruses, 2024).
Where two headings read alike, the source gives them in different places.

Columns and labels:
SARS-CoV-2 [1] = conditions: SARS-CoV-2, Vero
HCoV-OC43 = conditions: HCoV-OC43, Vero
HCoV-229E = conditions: Vero
HSV-1 = conditions: HSV-1, Vero
HSV-2 = conditions: HSV-2, Vero
[2] = system: influenza virus(H1N1,VR-1894); conditions: H1N1 VR-1894, MDKC
Measles virus(MeV) = conditions: VERO/hSLAM
RSV = conditions: fusion, ref AVPdb
INFVA = system: INFVA; set-up: method as in AVPdb; conditions: ref AVPdb; for IC50: virus entry; for EC50: fusion
[3] = system: human parainfluenza virus 3 (HPIV3); set-up: method as in ref 16973588; conditions: HPIV3 infection, HeLa
[4] = system: human parainfluenza virus 3 (HPIV3); set-up: method as in ref 16973588; conditions: HPIV3 fusion, HeLa
influenza A virus(H1N1) = system: influenza A virus(H1N1); set-up: method as in 2 sources
SARS-CoV-2 [5] = system: SARS-CoV-2; set-up: method as in ref 34328726; conditions: for IC50: SARS-CoV-2 entry, HEK293T/ACE2
A/Roma-ISS/02/08 H1N1 = conditions: A/Roma-ISS/02/08 H1N1, MDCK
influenza A virus(H3N2) = system: influenza A virus(H3N2); set-up: method as in 2 sources; conditions: H3N2, MDCK
SARS-CoV = conditions: 100 µM
Hendra virus(HeV) [6] = system: Hendra virus(HeV)
Hendra virus(HeV) [7] = system: Hendra virus(HeV); remark: listed apart in the source

FVPWFSKFlXRIL [DRAVPe00380]
IC90 (SARS-CoV-2 [1]): 25 µM
IC90 (HCoV-OC43): 27.7 µM
IC90 (HCoV-229E): > 50 µM
IC90 (HSV-1): 15.9 µM
IC90 (HSV-2): 19 µM

FVPWFSKFlXRILC [DRAVPe00389]
IC90 (SARS-CoV-2 [1]): 12 µM
IC90 (HSV-1): 11.1 µM
IC90 [2]: 10 µM
IC90 (Measles virus(MeV)): > 50 µM

FVPWFSKFlXRILGGC [DRAVPe00390]
IC90 (SARS-CoV-2 [1]): 50 µM
IC90 (HSV-1): 48 µM
IC90 [2]: 49.9 µM
IC90 (Measles virus(MeV)): > 50 µM

FVPWFSKFlwRIL [DRAVPe00386]
IC90 (SARS-CoV-2 [1]): 14.8 µM
IC90 (HCoV-OC43): 17.4 µM
IC90 (HCoV-229E): 50 µM
IC90 (HSV-1): 7.89 µM
IC90 (HSV-2): 9.76 µM

FVPWFSKFlxRIL [DRAVPe00382]
IC90 (SARS-CoV-2 [1]): 17.4 µM
IC90 (HCoV-OC43): 24.7 µM
IC90 (HCoV-229E): > 50 µM
IC90 (HSV-1): 12.8 µM
IC90 (HSV-2): 11.9 µM

FYDPLVFPSDEFDASISQVNEKINQSLAFIRKSDE [AVP0130]
IC50/EC50 (RSV): 20 µM

GAWYKGRARPVSAVA [AVP0963]
IC50 (INFVA): 53000 nM

GWWYKGRARAVSAVA [AVP0964]
IC50 (INFVA): 89000 nM

GWWYKGRARPVSAVA [AVP0961]
IC50 (INFVA): 3200 nM

IDISIELNKAKSDLEESKEWIRRSNQKLDSIGNWH [DRAVPe00930]
IC50 [3]: 0.5 µM
IC50 [4]: 1.5 µM

IINFYDPLVFPSDEFDASISQVNEKINQSLAFIRK [AVP0127]
IC50/EC50 (RSV): 91 µM

INFYDPLVFPSDEFDASISQVNEKINQSLAFIRKS [AVP0128]
IC50/EC50 (RSV): 93 µM

IPLRGAFINGRWDSQCHRFS [DRAVPe01801]
IC50 (influenza A virus(H1N1); A(H1N1), MDCK): 12.9 µg/mL

IYALLENAEDYNLVN [DRAVPe01985]
IC50 (SARS-CoV-2 [5]): 0.009 ± 0.004 µM
inhibition (SARS-CoV-2 [5]; at 25 µM): 100%

KANEGLTWNSLKDK [DRAVPe01644]
EC50 (A/Roma-ISS/02/08 H1N1): 0.001 ± 0.00015 µM

KFFRKKSVKK [DRAVPe01822]
EC50 (influenza A virus(H3N2)): 7.36 ± 1.2 µM
EC50 (influenza A virus(H1N1); H1N1, MDCK): 5.2 ± 0.9 µM

LVFPSDEFDASISQVNEKINQSLAFIRKSDELLHN [AVP0134]
IC50/EC50 (RSV): 9 µM

NFYDPLVFPSDEFDASISQVNEKINQSLAFIRKSD [AVP0129]
IC50/EC50 (RSV): >100 µM

NFYDPLVFPSDEFDASISQVNEKINQSLASIRKSDELLHNVNAGK [AVP1972]
IC50/EC50 (RSV): 2.93 µM

NGESSADWAKN [AVP1196]
EC50 (INFVA): 0.225 ± 0.00116 nM

NHEAEDLFY [DRAVPe01629]
inhibition (SARS-CoV): 30%

PLVFPSDEFDASISQVNEKINQSLAFIRKSDELLH [AVP0133]
IC50/EC50 (RSV): 30 µM

PSDEFDASISQVNEKINQSLAFIRKSDELLHNVNA [AVP0137]
IC50/EC50 (RSV): 6 µM

QDKHEEDYQMYNKGDKED [DRAVPe01982]
IC50 (SARS-CoV-2 [5]): 0.018 ± 0.002 µM
inhibition (SARS-CoV-2 [5]; at 0.39 µM): 95%
inhibition (SARS-CoV-2 [5]; at 25 µM): 100%

RAVWRHSVATPSHSV [AVP0969]
IC50 (INFVA): > 500000 nM

RRKKAAVALLPAVLLALLAP [AVP0554]
IC50 (INFVA): 8000 nM

RRKKIFYFFR [AVP1759]
IC50 (INFVA): 155 nM

RRKKWLVFFVIFYFFR [AVP1754]
IC50 (INFVA): 0.04 nM

SDEFDASISQVNEKINQSLAFIRKSDELLHNVNAG [AVP0138]
IC50/EC50 (RSV): 6 µM

SIELNKAKSDLEESKEWIRRSNQKLDSI [DRAVPe01316]
IC50 (Hendra virus(HeV) [6]): > 10 µM
IC50 [3]: > 10 µM
IC50 (Hendra virus(HeV) [7]): > 1 µM
IC50 [4]: > 10 µM

SKHSSLDCVLRP [AVP1194]
EC50 (INFVA): 0.004 ± 0.00037 nM

SRDKHEEHEKENDRGQ [DRAVPe01986]
IC50 (SARS-CoV-2 [5]): 0.01 ± 0.005 µM
inhibition (SARS-CoV-2 [5]; at 25 µM): 100%

VALDPIDISIELNKAKSDLEESKEWIRR [DRAVPe01315]
IC50 (Hendra virus(HeV) [6]): > 10 µM
IC50 [3]: > 10 µM
IC50 (Hendra virus(HeV) [7]): > 1 µM
IC50 [4]: > 10 µM

VALDPIDISIELNKAKSDLEESKEWIRRSNQKLDSD [DRAVPe01313]
IC50 [3]: 0.5 µM
IC50 [4]: 0.35 µM

VALDPIDISIELNKAKSDLEESKEWIRRSNQKLDSI [DRAVPe01311]
IC50 [3]: 0.5 µM
IC50 [4]: 0.5 µM

VANDPIDISIELNKAKSDLEESKEWIRRSNQKLDSD [DRAVPe01314]
IC50 (Hendra virus(HeV) [6]): > 10 µM
IC50 [3]: 1.1 µM
IC50 (Hendra virus(HeV) [7]): > 1 µM
IC50 [4]: 0.75 µM

VANDPIDISIELNKAKSDLEESKEWIRRSNQKLDSI [DRAVPe01312]
IC50 [3]: 1.1 µM
IC50 [4]: 0.75 µM

VFPSDEFDASISQVNEKINQSLAFIRKSDELLHNV [AVP0135]
IC50/EC50 (RSV): 19 µM

WLVFFVIAYFAR [AVP1755]
IC50 (INFVA): 0.87 nM

WLVFFVIFYFFR [AVP1756]
IC50 (INFVA): 93.6 nM

WLVFFVIFYFFRRRKK [AVP1753]
IC50 (INFVA): 0.03 nM

WLVFFVRRKK [AVP1806]
IC50 (INFVA): 638 nM

YDPLVFPSDEFDASISQVNEKINQSLAFIRKSDEL [AVP0131]
IC50/EC50 (RSV): 6 µM
